≈ marks a conversion by molar mass, not a printed value.
Tests used:
[1] = system: Candida albicans; test: Antifungal activity against Candida albicans SC5314 assessed as fungal growth inhibition incubated for 24 hrs by broth dilution method; type: functional
[2] = system: Candida albicans; type: functional, 0304103; conditions: time 24 hrs
Description: Synergetic antifungal activity against Candida albicans 0304103 assessed as fractional inhibitory concentration index incubated for 24 hrs in the presence of fluconazole by checkerboard microdilution method

[3] = target: Histone deacetylase; test: Inhibition of total HDAC in human HUVEC cells using Boc-Lys(Ac)-AMC as substrate preincubated for 12 hrs followed by substrate addition measured after 6 hrs by microtiter plate reader analysis; type: cell-based
[4] = system: K562; test: Antiproliferative activity against human K562 cells incubated for 48 hrs by CCK8 assay; type: functional, cell-based; conditions: K562, 48 h
[5] = system: HL-60; test: Antiproliferative activity against human HL-60 cells incubated for 48 hrs by CCK8 assay; type: functional, cell-based; conditions: HL-60, 48 h
[6] = system: Candida albicans; test: microbe, parasite or virus in culture; type: functional; conditions: 0304103
Description: Antifungal activity against Candida albicans 0304103 assessed as microbial growth inhibition

[7] = in vitro; conditions: human, HUVEC cells
Description: Cytotoxicity against HUVECs assessed as inhibition of cell growth incubated for 48 hrs by CCK8 assay

[8] = system: HEL; test: Antiproliferative activity against human HEL cells incubated for 48 hrs by CCK8 assay; type: functional, cell-based
[9] = system: Cryptococcus neoformans; test: Antifungal activity against Cryptococcus neoformans H99 assessed as fungal growth inhibition incubated for 24 hrs by broth dilution method; type: functional
[10] = target: Histone deacetylase 1 (Homo sapiens, UniProt Q13547); test: Inhibition of full-length recombinant human HDAC1 (1 to 482 residues) expressed in baculovirus infected insect cells using […] as substrate incubated for 30 mins by fluorescence based analysis; parameters: species or system Insect cell
Sequence of Histone deacetylase 1 (Q13547 whole entry, the tested form may be a part): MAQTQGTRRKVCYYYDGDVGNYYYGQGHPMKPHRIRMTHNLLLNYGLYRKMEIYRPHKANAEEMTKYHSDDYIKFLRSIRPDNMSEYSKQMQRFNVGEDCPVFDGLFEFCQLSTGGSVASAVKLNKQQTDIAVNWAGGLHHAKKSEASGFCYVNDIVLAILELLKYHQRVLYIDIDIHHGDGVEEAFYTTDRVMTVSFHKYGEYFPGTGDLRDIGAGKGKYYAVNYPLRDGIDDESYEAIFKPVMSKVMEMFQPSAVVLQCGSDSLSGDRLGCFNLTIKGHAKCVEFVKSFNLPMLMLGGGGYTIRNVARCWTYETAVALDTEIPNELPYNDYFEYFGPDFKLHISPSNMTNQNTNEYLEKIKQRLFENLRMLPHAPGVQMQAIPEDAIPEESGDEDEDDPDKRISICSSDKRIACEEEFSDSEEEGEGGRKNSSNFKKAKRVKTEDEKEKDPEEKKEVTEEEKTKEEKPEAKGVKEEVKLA

[11] = system: Candida albicans; test: microbe, parasite or virus in culture; type: functional; conditions: 0304103, time 24 hrs
Description: Synergetic antifungal activity against Candida albicans 0304103 assessed as microbial growth inhibition incubated for 24 hrs in the presence of fluconazole by checkerboard microdilution method

Row | SMILES | MIC80 [1] [µg/mL] | fractional inhibitory concentration index (FICI) [2] | IC50 [3] [µM] | IC50 [4] [µM] | IC50 [5] [µM] | MIC80 [6] [µg/mL] | IC50 at 48 h [7] [µM] | IC50 [8] [µM] | MIC80 [9] [µg/mL] | IC50 [10] [µM] | MIC80 [11] [µg/mL]
1 | Cc1nnc2n1-c1ccc(Cl)cc1C(c1ccccc1Cl)=N[C@H]2CC(=O)Nc1ccc(CC(=O)NO)cc1 | > 64 | 0.14 | 4.4 | 8 | 9.7 | > 64 | 19 | > 10 | 16 (≈ 29.1 µM) | 1.1 | 8 (≈ 14.6 µM)
2 | Cc1nnc2n1-c1ccccc1C(c1ccccc1)=N[C@H]2CC(=O)Nc1ccc(C(=O)NO)cc1 | > 64 | 0.094 | 0.065 | 3.3 | 1.7 | > 64 | 25 | > 10 | 16 (≈ 34.3 µM) | 0.062 | 4 (≈ 8.57 µM)
3 | Cc1sc2c(c1C)C(c1ccc(Cl)cc1)=N[C@@H](CC(=O)OC(C)(C)C)c1nnc(C)n1-2 | > 64 | >2 |  | 1.4 | 0.15 | > 64 | 0.58 | 0.069 | > 64 |  | 64 (≈ 140 µM)
4 | Cc1ccc(C2=N[C@@H](CC(=O)NCc3ccc(C(=O)NO)cc3)c3nnc(C)n3-c3ccccc32)cc1 | > 64 | 0.14 | 5.8 | > 10 | > 10 | > 64 | 20 | 7 | 32 (≈ 64.7 µM) | 0.89 | 8 (≈ 16.2 µM)
5 | Cc1nnc2n1-c1ccccc1C(c1ccc(Cl)cc1)=N[C@H]2CC(=O)Nc1ccc(CC(=O)NO)cc1 | > 64 | 0.75 | 2.8 | > 10 | 1.1 | > 64 | 19 | > 10 | 32 (≈ 62.1 µM) | 2.4 | 32 (≈ 62.1 µM)
6 | Cc1nnc2n1-c1sc3c(c1C(c1ccc(Cl)cc1)=N[C@H]2CC(=O)Nc1ccc(CC(=O)NO)cc1)CCCC3 | > 64 | 0.07 | 2.2 | > 10 | 1.1 | > 64 | 5.9 | 4 | 16 (≈ 27.8 µM) | 1.4 | 4 (≈ 6.96 µM)
7 | Cc1nnc2n1-c1ccccc1C(c1ccc(Cl)cc1)=N[C@H]2CC(=O)Nc1ccc(/C=C/C(=O)NO)cc1 | > 64 | 0.066 | 0.42 | 1.5 | 4.7 | > 64 | 8.1 | > 10 | 8 (≈ 15.2 µM) | 0.63 | 4 (≈ 7.59 µM)
8 | Cc1ccc(C2=N[C@@H](CC(=O)Nc3ccc(/C=C/C(=O)NO)cc3)c3nnc(C)n3-c3ccccc32)cc1 | > 64 | 0.094 | 0.63 | 1.4 | 4.2 | > 64 | 14 | 9 | 8 (≈ 15.8 µM) | 0.18 | 4 (≈ 7.9 µM)
9 | Cc1nnc2n1-c1ccccc1C(c1ccccc1)=N[C@H]2CC(=O)NCc1ccc(C(=O)NO)cc1 | > 64 | 0.14 | 2.8 | > 10 | 5.7 | > 64 | 17 | > 10 | 32 (≈ 66.6 µM) | 0.25 | 8 (≈ 16.6 µM)
10 | Cc1nnc2n1-c1ccc(Cl)cc1C(c1ccccc1Cl)=N[C@H]2CC(=O)Nc1ccc(/C=C/C(=O)NO)cc1 | > 64 | 0.07 | 0.035 | 3.1 | 4.2 | > 64 | 7.3 | 8.3 | 8 (≈ 14.2 µM) | 1.3 | 4 (≈ 7.12 µM)
11 | Cc1ccc(C2=N[C@@H](CC(=O)Nc3ccc(C(=O)NO)cc3)c3nnc(C)n3-c3ccccc32)cc1 | > 64 | 0.078 | 0.13 | > 10 | 0.34 | > 64 | 2.8 | 0.39 | 32 (≈ 66.6 µM) | 51 | 4 (≈ 8.32 µM)
12 | Cc1nnc2n1-c1sc3c(c1C(c1ccc(Cl)cc1)=N[C@H]2CC(=O)Nc1ccc(/C=C/C(=O)NO)cc1)CCCC3 | > 64 | 0.066 | 0.15 | 2.4 | 5.1 | > 64 | 4.7 | > 10 | 4 (≈ 6.81 µM) | 0.79 | 4 (≈ 6.81 µM)
13 | Cc1nnc2n1-c1ccccc1C(c1ccc(Cl)cc1)=N[C@H]2CC(=O)Nc1ccc(C(=O)NO)cc1 | > 64 | 31 | 0.16 | > 10 | 0.87 | > 64 | 34 | > 10 | 32 (≈ 63.9 µM) | 0.11 | 16 (≈ 31.9 µM)
14 | Cc1ccc(C2=N[C@@H](CC(=O)Nc3ccc(CC(=O)NO)cc3)c3nnc(C)n3-c3ccccc32)cc1 | > 64 | 0.14 | 3.8 | > 10 | 5.1 | > 64 | 33 | > 10 | 32 (≈ 64.7 µM) | 2.9 | 8 (≈ 16.2 µM)
15 | Cc1nnc2n1-c1ccccc1C(c1ccc(Cl)cc1)=N[C@H]2CC(=O)NCc1ccc(C(=O)NO)cc1 | > 64 | 0.28 | 2.7 | > 10 | 7.1 | > 64 | 23 | > 10 | 32 (≈ 62.1 µM) | 0.56 | 16 (≈ 31.1 µM)
16 | Cc1nnc2n1-c1ccccc1C(c1ccccc1)=N[C@H]2CC(=O)Nc1ccc(/C=C/C(=O)NO)cc1 | > 64 | 0.094 | 0.016 | 1.9 | 7 | > 64 | 14 | > 10 | 8 (≈ 16.2 µM) | 0.1 | 4 (≈ 8.12 µM)
17 | Cc1nnc2n1-c1sc3c(c1C(c1ccc(Cl)cc1)=N[C@H]2CC(=O)Nc1ccc(C(=O)NO)cc1)CCCC3 | > 64 | 0.078 | 0.047 | 0.41 | 0.31 | > 64 | 2.6 | 0.29 | 4 (≈ 7.13 µM) | 0.72 | 4 (≈ 7.13 µM)

Source: ChEMBL document CHEMBL5331104, “Discovery of BRD4-HDAC Dual Inhibitors with Improved Fungal Selectivity and Potent Synergistic Antifungal Activity against Fluconazole-Resistant Candida albicans” (J Med Chem, 2023)
